From US20210403485A1, “PYRAZOLOPYRIMIDINE DERIVATIVE AS SELECTIVE TRK INHIBITOR” (SHANDONG LUYE PHARMACEUTICAL CO., LTD., priority 2018, published 2021)

What was measured:
[1] = biological target: T1, ALK (Homo sapiens, UniProt Q9UM73); experiment: Kinase inhibitory activity (33P-ATP, filtration-binding method, Reaction Biology Corp.); format: biochemical; settings: read-out: Half maximal inhibitory concentration IC50 for kinases, ALK
T1 construct: purchased Reaction Biology Corp
Description: (§1) The mixture was incubated at room temperature for 20 minutes, added with ^33P-ATP at a certain concentration to start the reaction, and then incubated at room temperature for 120 minutes. Finally, the radioactivity of the reactant was detected by the filtration-binding method. The final kinase activity was expressed as the ratio of the remaining kinase activity in the test sample to the kinase activity of the DMSO control. The dose-response curves were fitted and IC50 values were calculated by GraphPad software.

[2] = biological target: T2, Ros1 (Homo sapiens, UniProt P08922); experiment: as above; format: biochemical; settings: read-out: Half maximal inhibitory concentration IC50 for kinases, Ros1
T2 construct: purchased Reaction Biology Corp
Description: as §1

[3] = biological target: T3, TrkA (Homo sapiens, UniProt P04629); experiment: as above; format: biochemical; settings: read-out: Half maximal inhibitory concentration IC50 for kinases, TrkA
T3 construct: purchased Reaction Biology Corp
Description: as §1

[4] = biological target: T4, TrkA-G595R (Homo sapiens, UniProt P04629, G595R); experiment: as above; format: biochemical; settings: read-out: Half maximal inhibitory concentration IC50 for kinases, TrkA-G595R
T4 construct: purchased Reaction Biology Corp
Description: as §1

[5] = biological target: T5, TrkA-G667C (Homo sapiens, UniProt P04629, G667C); experiment: as above; format: biochemical; settings: read-out: Half maximal inhibitory concentration IC50 for kinases, TrkA-G667C
T5 construct: purchased Reaction Biology Corp
Description: as §1

[6] = biological target: T6, TrkC (Homo sapiens, UniProt Q16288); experiment: as above; format: biochemical; settings: read-out: Half maximal inhibitory concentration IC50 for kinases, TrkC
T6 construct: purchased Reaction Biology Corp
Description: as §1

[7] = biological target: T7, Ba/F3 LMNA-NTRK1-F589L (Homo sapiens, UniProt P04629, F589L, cells depend on it); experiment: Inhibitory activity against cell proliferation (CellTiter-Glo, 72 hours); format: cell-based; settings: read-out: Half maximal inhibitory concentration IC50 of cells, Ba/F3 LMNA-NTRK1-F589L
T7 construct: fused on or other part: N-terminal part of LMNA as fusion partner (part of the key); P02545 (Prelamin-A/C)
Description: (§2) Adenosine Triphosphate (ATP) is an energy carrier commonly used in various life activities in nature, and is the minimum unit for energy storage and transfer. The CellTiter-Glo™ cell viability assay kit uses luciferase as an assay agent, which requires the involvement of ATP in luminescence. The CellTiter-Glo™ reagent is added into cell culture medium to measure the luminescence value. The luminescence signal is directly proportional to the amount of ATP in the system, and the ATP is positively correlated with the number of viable cells. Therefore, the proliferation of cells can be detected by detecting the ATP content using the CellTiter-Glo kit.
(§3) a) Cells in the logarithmic growth phase were collected and counted using a […]. The cell viability was detected by the trypan blue exclusion method, and the cell viability was kept over 90%.
(§4) b) The cell concentration was adjusted; 90 μL of the cell suspension was added to a 96-well plate.
(§5) a) A 10-fold compound solution was prepared, with the highest concentration being 10 μM (a total of 9 concentrations, 3-fold dilution). 10 μL of compound solution was added to each well of a 96-well plate inoculated with cells, and three duplicate wells were set for each compound concentration.
(§6) a) The CTG reagent was thawed and the cell plate was equilibrated to room temperature for 30 minutes.
(§7) b) An equal volume of CTG solution was added to each well.
(§8) c) The plate was shaken on an orbital shaker for 5 minutes to lyse the cells.
(§9) d) The cell plate was placed at room temperature for 20 minutes to stabilize the luminescence signal.
(§10) e) The luminescence value was read.
(§11) The data were analyzed using GraphPad Prism 5.0 software, fitted with nonlinear S-curve regression to give dose-response curves, and IC50 values were calculated therefrom.

[8] = biological target: T8, Ba/F3 LMNA-NTRK1-WT (Homo sapiens, UniProt P04629); experiment: as above; format: cell-based; settings: read-out: Half maximal inhibitory concentration IC50 of cells, Ba/F3 LMNA-NTRK1-WT
T8 construct: fused on or other part: N-terminal part of LMNA as fusion partner (part of the key); P02545 (Prelamin-A/C)
Description: as §2, §3, §4, §5, §6, §7, §8, §9, §10, §11

[9] = biological target: T9, Ba/F3 SLC34A2-ROS1-WT (Homo sapiens, UniProt P08922); experiment: as above; format: cell-based; settings: read-out: Half maximal inhibitory concentration IC50 of cells, Ba/F3 SLC34A2-ROS1-WT
T9 construct: fused on or other part: N-terminal part of SLC34A2 as fusion partner (part of the key); O95436 (Sodium-dependent phosphate transport protein 2B)
Description: as §2, §3, §4, §5, §6, §7, §8, §9, §10, §11

[10] = biological target: T10, BaF3 ETV6-NTRK3-WT (Homo sapiens, UniProt Q16288); experiment: as above; format: cell-based; settings: read-out: Half maximal inhibitory concentration IC50 of cells, BaF3 ETV6-NTRK3-WT
T10 construct: fused on or other part: N-terminal part of ETV6 (TEL) as fusion partner (part of the key); P41212 (Transcription factor ETV6)
Description: as §2, §3, §4, §5, §6, §7, §8, §9, §10, §11

[11] = biological target: T11, BaF3 LMNA-NTRK1-G595R (Homo sapiens, UniProt P04629, G595R, cells depend on it); experiment: as above; format: cell-based; settings: read-out: Half maximal inhibitory concentration IC50 of cells, BaF3 LMNA-NTRK1-G595R
T11 construct: fused on or other part: N-terminal part of LMNA as fusion partner (part of the key); P02545 (Prelamin-A/C)
Description: as §2, §3, §4, §5, §6, §7, §8, §9, §10, §11

[12] = biological target: T12, BaF3 LMNA-NTRK1-G667A (Homo sapiens, UniProt P04629, G667A, cells depend on it); experiment: as above; format: cell-based; settings: read-out: Half maximal inhibitory concentration IC50 of cells, BaF3 LMNA-NTRK1-G667A
T12 construct: fused on or other part: N-terminal part of LMNA as fusion partner (part of the key); P02545 (Prelamin-A/C)
Description: as §2, §3, §4, §5, §6, §7, §8, §9, §10, §11

[13] = biological target: T13, BaF3 ETV6-NTRK3-G623R (Homo sapiens, UniProt Q16288, G623R, cells depend on it); experiment: as above; format: cell-based; settings: read-out: Half maximal inhibitory concentration IC50 of cells, BaF3 ETV6-NTRK3-G623R
T13 construct: fused on or other part: N-terminal part of ETV6 (TEL) as fusion partner (part of the key); P41212 (Transcription factor ETV6)
Description: as §2, with “kit. In this test, the cell lines used are Ba/F3 LMNA-NTRK1-WT, Ba/F3 LMNA-NTRK1-F589L, BaF3 LMNA-NTRK1-G595R, BaF3 LMNA-NTRK1-G667A, BaF3 ETV6-NTRK3-WT, BaF3 ETV6-NTRK3-G623R, and Ba/F3 SLC34A2-ROS1-WT stable cell strains, 5000 cells/well.” for “kit.”
as §3, §4
c) Cells in the 96-well plate were incubated overnight at 37° C. with 5% CO2 and 95% humidity.
as §5
b) The cells in the 96-well plate added with compound were incubated for 72 hours at 37° C. with 5% CO2 and 95% humidity, followed by the CTG (CellTiter-Glo) analysis.
as §6, §7, §8, §9, §10, §11

[14] = Pharmacokinetic test of compounds in rats (plasma, LC/MS/MS); format: in vivo, male SD rats; settings: for Cmax: read-out: Peak concentration Cmax
Description: Experimental purpose: male SD rats aged 7-9 weeks were selected as test animals, and the drug concentrations of the compounds in plasma at different time points after single intravenous injection (IV) and intragastric administration (PO) of the compounds were measured by an LC/MS/MS method, so that the pharmacokinetic behavior of the compounds disclosed herein in rats was studied, and the pharmacokinetic characteristic of the compounds was evaluated.
Drug preparation: the compounds were all prepared into clear solution by taking 5% DMSO+10% solutol+85% water as vehicle, and were used for administration in IV and PO groups. The dose of each compound administered was: IV, 3 mg/kg; PO, 10 mg/kg.

T3 sequence (P04629 33-796): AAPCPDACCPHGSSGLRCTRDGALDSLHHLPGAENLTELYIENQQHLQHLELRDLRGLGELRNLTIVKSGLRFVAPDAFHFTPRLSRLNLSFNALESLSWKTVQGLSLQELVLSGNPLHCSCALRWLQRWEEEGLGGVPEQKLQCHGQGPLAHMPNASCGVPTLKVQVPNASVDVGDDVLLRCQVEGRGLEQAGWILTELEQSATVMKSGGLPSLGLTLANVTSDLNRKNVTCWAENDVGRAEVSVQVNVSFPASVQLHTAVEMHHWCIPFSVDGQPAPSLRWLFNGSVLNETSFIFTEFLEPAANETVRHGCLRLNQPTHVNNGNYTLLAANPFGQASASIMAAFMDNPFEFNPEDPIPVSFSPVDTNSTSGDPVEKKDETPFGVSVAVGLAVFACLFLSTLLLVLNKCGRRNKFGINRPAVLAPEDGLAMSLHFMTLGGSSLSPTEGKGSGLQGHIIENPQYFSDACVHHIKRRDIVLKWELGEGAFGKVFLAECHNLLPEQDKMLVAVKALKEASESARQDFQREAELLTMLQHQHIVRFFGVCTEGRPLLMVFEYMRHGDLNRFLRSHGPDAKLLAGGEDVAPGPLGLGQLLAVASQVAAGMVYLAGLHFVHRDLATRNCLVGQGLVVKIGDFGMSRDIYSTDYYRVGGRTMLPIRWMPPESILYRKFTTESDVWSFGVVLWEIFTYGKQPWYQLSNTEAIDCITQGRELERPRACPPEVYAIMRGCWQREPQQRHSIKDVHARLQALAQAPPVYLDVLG
T6 sequence (Q16288 32-839): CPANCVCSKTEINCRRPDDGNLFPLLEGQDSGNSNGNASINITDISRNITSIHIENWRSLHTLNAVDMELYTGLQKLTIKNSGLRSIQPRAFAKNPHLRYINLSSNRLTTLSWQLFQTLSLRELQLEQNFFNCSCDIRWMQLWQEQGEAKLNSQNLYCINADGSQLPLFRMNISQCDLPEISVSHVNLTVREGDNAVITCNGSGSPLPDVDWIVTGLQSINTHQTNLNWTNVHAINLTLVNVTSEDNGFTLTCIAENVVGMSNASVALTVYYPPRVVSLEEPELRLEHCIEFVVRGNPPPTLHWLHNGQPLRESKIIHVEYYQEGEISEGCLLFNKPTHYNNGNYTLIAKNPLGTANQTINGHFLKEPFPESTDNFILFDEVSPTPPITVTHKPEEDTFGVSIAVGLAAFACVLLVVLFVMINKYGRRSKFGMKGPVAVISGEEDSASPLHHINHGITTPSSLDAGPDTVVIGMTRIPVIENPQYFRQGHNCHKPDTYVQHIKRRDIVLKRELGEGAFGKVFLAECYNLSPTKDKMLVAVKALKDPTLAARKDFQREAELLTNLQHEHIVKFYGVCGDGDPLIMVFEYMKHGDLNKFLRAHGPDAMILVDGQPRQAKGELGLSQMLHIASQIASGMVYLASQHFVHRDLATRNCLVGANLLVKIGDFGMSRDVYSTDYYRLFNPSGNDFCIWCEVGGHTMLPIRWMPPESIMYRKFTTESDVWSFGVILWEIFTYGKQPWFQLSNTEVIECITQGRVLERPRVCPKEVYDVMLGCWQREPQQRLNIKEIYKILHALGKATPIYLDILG
T10 sequence (Q16288 whole entry, change not shown, the tested form may be a part): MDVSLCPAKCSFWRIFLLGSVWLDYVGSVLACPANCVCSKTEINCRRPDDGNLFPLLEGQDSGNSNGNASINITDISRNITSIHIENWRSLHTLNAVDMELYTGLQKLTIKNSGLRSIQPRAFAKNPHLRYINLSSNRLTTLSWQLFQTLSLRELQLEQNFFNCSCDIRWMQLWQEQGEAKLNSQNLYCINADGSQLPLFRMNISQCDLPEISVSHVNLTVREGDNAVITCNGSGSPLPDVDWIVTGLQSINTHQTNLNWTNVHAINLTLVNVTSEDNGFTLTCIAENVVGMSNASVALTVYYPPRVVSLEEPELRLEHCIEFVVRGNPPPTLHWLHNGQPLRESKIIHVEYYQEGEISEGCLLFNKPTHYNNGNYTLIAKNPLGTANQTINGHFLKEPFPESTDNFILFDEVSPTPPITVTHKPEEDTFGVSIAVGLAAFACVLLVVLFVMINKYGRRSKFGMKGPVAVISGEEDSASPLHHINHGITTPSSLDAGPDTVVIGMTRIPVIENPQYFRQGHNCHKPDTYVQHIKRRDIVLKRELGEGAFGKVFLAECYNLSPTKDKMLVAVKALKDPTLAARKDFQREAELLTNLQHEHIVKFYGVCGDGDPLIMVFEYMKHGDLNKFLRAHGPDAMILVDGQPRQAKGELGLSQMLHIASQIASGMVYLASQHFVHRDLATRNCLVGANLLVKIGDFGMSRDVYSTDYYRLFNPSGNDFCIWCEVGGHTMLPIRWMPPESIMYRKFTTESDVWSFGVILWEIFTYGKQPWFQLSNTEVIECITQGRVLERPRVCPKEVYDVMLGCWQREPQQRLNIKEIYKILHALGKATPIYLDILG
T12 sequence (P04629 whole entry G667A, the tested form may be a part): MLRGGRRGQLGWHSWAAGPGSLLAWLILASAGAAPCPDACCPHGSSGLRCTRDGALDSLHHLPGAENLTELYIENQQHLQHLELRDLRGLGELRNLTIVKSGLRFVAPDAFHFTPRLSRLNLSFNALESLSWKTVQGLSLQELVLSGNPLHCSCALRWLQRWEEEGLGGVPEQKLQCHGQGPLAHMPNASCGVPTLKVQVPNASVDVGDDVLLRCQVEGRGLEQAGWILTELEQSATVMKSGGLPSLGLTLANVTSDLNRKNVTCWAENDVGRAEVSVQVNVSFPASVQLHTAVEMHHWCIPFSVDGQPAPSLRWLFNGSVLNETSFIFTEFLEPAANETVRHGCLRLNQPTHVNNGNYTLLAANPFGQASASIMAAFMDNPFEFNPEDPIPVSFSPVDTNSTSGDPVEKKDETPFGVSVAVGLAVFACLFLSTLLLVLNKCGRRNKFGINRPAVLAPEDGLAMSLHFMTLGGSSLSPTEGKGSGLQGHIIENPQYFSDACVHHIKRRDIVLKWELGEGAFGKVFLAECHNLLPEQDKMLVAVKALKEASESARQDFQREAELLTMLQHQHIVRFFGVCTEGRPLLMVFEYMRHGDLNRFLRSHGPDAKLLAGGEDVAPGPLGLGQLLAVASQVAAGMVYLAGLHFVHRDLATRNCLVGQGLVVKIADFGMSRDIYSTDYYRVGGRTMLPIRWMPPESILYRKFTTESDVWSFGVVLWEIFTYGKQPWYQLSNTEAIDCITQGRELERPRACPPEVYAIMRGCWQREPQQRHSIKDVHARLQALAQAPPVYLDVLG
T13 sequence (Q16288 whole entry G623R, the tested form may be a part): as the sequence (Q16288 whole entry, change not shown, the tested form may be a part) above, with G623R counted along it
T5 sequence (P04629 33-796 G667C): as the sequence (P04629 33-796) above, with G635C counted along it

Structure (SMILES)	IC50 [1] [nM]	IC50 [2] [nM]	IC50 [3] [nM]	IC50 [4] [nM]	IC50 [5] [nM]	IC50 [6] [nM]	GI50 [7] [nM]	GI50 [8] [nM]	GI50 [9] [nM]	GI50 [10] [nM]	GI50 [11] [nM]	GI50 [12] [nM]	GI50 [13] [nM]	Apparent clearance Cl ([14]; IV, 3 mg/kg) [mL/min/kg]	Apparent volume of distribution Vd ([14]; IV, 3 mg/kg) [L/kg]	Area under the curve AUC0-last ([14]; IV, 3 mg/kg) [µM·h]	Half-life T1/2 ([14]; IV, 3 mg/kg) [min]	Area under the curve AUC0-last ([14]; PO, 10 mg/kg) [µM·h]	Bioavailability F % ([14]; PO, 10 mg/kg) [%]	Time to peak Tmax ([14]; PO, 10 mg/kg) [min]	also measured
C[C@@H]1COC[C@@H]2c3cc(F)cnc3O[C@@H](C)CNC(=O)c3cnn4ccc(nc34)N12 [WX008]	> 1000	12.8	0.7	0.2	0.1	0.1	204	1.6	> 1000	1.8	5	2	8.6	44.0	1.4	2.748	30	2.282	25	30	Cmax ([14]; PO, 10 mg/kg): 1130 nM
C[C@@H]1COc2ncc(F)cc2[C@H]2COC[C@@H](C)N2c2ccn3ncc(c3n2)C(=O)N1 [WX006]	> 1000	4.8	0.7	0.3	0.1	0.1	189	1.5	900	3.2	8.4	2	14.2	32.9	1.3	3.818	36	6.637	53	30	Cmax ([14]; PO, 10 mg/kg): 3750 nM
O=C1NC2(CC2)COc2ncc(F)cc2[C@H]2CCOCCN2c2ccn3ncc1c3n2 [WX009A]	51.3	0.1	1.8	0.9	2.9	0.1	15.8	1	50	2.2	7.4	7.3	12.9	19.0	1.3	6.19	54	9.696	49	78	Cmax ([14]; PO, 10 mg/kg): 2630 nM
